{"source": "patent US12070445B2", "about": "“System and assay for monitoring production/release of membrane-lytic toxins in bacteria and compounds for modulating same” (priority 2021, dated 2024)", "tested_on": "S. aureus", "assay": "S. aureus growth (OD600)", "type": "cell-based", "details": "S. aureus WT and QS mutant with vesicles, 12 hr", "method": "Microtiter plate vesicle lysis assays. Portions of media (2 or 10 mL) were inoculated with individual bacterial colonies and allowed to shake overnight. From these overnight cultures, subcultures were prepared by diluting the cultures 1:50 (v/v) in fresh BHI for S. aureus or 1:100 (v/v) in fresh LB for P. aeruginosa. An aliquot of each subculture (178 μL) was added to 20 μL of vesicle suspension and 2 μL of compound solution (dissolved in DMSO at 100× working concentration) in a clear-bottomed, black 96-well microtiter plate (Corning 3904). For controls, DMSO (vehicle) or Triton X-100 (1% final concentration) was substituted for compound. Plate covers were coated with an aqueous solution of 0.05% Triton X-100 and 20% ethanol (Brewster, 2003) to prevent the accumulation of condensation. Plates were incubated in a Biotek Synergy 2 microplate reader running Gen5 1.05 software at 37° C. with shaking at the high-speed setting. Fluorescence (excitation 500 nm, emission 540 nm) and OD600 (absorbance at 600 nm) measurements were recorded every 15 minutes for 12 hours. All experiments were performed in technical triplicate in a single microtiter plate. Biological triplicates were then obtained over three days. GraphPad Prism software (v. 9) was used to generate curves and calculate standard error.\nHigh-throughput screening and follow-up analysis protocols. Test compounds and positive control 1 were delivered in 2.5 nL aliquots of DMSO with an Echo 550 liquid handler (LabCyte Inc.) into black 384-well microtiter plates (Corning). All test compounds were tested at 10 μM; positive control 1 was tested at 250 nM. DMSO was used as a negative control. Overnight cultures (2 mL) of WT S. aureus (RN6390b) were grown at 37° C. with shaking at 200 rpm. These cultures were diluted 1:500 (v/v) in fresh BHI medium, at which point vesicle solutions were added to a final concentration of 1 mM phospholipid (as determined by ^31P NMR analyses). This vesicle-cell mixture was then added to the 384-well microtiter plates with a Multidrop 384 liquid-dispensing robot (Thermo Scientific) for a total volume of 50 μL per well. Plates were incubated statically for ˜24 hr at 37° C., at which point fluorescence (excitation 483, emission 530) and OD600 (absorbance at 600 nm) measurements were made using a CLARIOstarR Plus microtiter plate reader (BMG Labtech) running MARS data analysis software. Scatter plots were generated using the Collaborative Drug Discovery Vault informatics platform. […] Fluorescence (excitation 510, emission 544) and OD600 measurements were acquired with a PerkinElmer EnVision microtiter plate reader running Envision Manager software. […]"}
{"smiles": "CC(C)c1ccc(S(=O)(=O)c2nnn3c2nc(O)c2ccccc23)cc1", "note": "[Compound 6, savirin]", "values": [{"measurement": "impact on cell growth", "value": "some effects on growth at later time points"}]}
